Assay results: US20070004660A1, “Synergistic Modulation of Flt3 Kinase Using Alkylquinolines and Alkylquinazolines” (priority 2005, published 2007)

Legend:
[1] = biological target: T1, isolated kinase domain of the human FLT3 receptor (a.a. 571-993) (Homo sapiens, UniProt P36888); assay: FLT3 fluorescence polarization kinase assay; type: biochemical; settings: 150 uM ATP; uncertainty ±10%
T1 construct: human FLT3 receptor (a.a. 571-993)
T1 sequence (P36888 571-993): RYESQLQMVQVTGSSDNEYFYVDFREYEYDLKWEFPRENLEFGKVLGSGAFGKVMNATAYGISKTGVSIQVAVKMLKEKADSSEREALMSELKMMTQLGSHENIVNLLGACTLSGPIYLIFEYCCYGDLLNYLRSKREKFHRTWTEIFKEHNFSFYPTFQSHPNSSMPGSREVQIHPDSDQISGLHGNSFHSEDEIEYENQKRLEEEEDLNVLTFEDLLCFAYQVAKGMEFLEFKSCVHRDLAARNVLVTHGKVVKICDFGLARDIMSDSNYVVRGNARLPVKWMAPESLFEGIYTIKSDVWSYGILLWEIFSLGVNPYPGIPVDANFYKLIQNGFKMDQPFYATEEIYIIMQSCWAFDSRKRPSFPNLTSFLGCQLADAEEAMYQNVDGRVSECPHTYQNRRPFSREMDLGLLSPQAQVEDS

MV4-11 cells = assay: Inhibition of MV4-11 cell proliferation (CellTiterGlo, 72 h); type: cell-based; settings: Homo sapiens; 72 h growth inhibition; uncertainty ±20%

Structure (SMILES) | IC50 [1] [µM] | IC50 (MV4-11 cells) [µM]
CN1CCC(COc2ccc3c(C4CCN(C(=O)Nc5ccc(N6CCOCC6)cc5)CC4)ncnc3c2)CC1 [Example 94, 4-[7-(1-Methyl-piperidin-4-ylmethoxy)-quinazolin-4-yl]-piperidine-1-carboxylic acid (4-morpholin-4-yl-phenyl)-amide] | 0.001 | 0.06
O=C(Nc1ccc(N2CCCC2)nc1)N1CCC(c2ncnc3cc(OCCN4CCOCC4)ccc23)CC1 [Example 95, 4-[7-(2-Morpholin-4-yl-ethoxy)-quinazolin-4-yl]-piperidine-1-carboxylic acid (6-pyrrolidin-1-yl-pyridin-3-yl)-amide] | 0.008 | 0.056
O=C(Nc1ccc(N2CCOCC2)cc1)N1CCC(c2ncnc3cc(OCCN4CCOCC4)ccc23)CC1 [Example 96, 4-[7-(2-Morpholin-4-yl-ethoxy)-quinazolin-4-yl]-piperidine-1-carboxylic acid (4-morpholin-4-yl-phenyl)-amide] | 0.036 | 0.235
CC(=O)N1CCN(CCOc2ccc3c(C4CCN(C(=O)Nc5ccc(N6CCOCC6)cc5)CC4)ncnc3c2)CC1 [Example 97, 4-{7-[2-(4-Acetyl-piperazin-1-yl)-ethoxy]-quinazolin-4-yl}-piperidine-1-carboxylic acid (4-morpholin-4-yl-phenyl)-amide] | 0.028 | 0.262
O=C(Nc1ccc(N2CCOCC2)cc1)N1CCC(c2ncnc3cc(OCCC4CCCCN4)ccc23)CC1 (stereo not shown) [Example 98, 4-[7-(2-Piperidin-2-yl-ethoxy)-quinazolin-4-yl]-piperidine-1-carboxylic acid (4-morpholin-4-yl-phenyl)-amide] | 0.027 | 0.277
CN1CCC(COc2ccc3c(C4CCN(C(=O)Nc5ccc(N6CCCC6)nc5)CC4)ncnc3c2)CC1 [Example 99, 4-[7-(1-Methyl-piperidin-4-ylmethoxy)-quinazolin-4-yl]-piperidine-1-carboxylic acid (6-pyrrolidin-1-yl-pyridin-3-yl)-amide] | 0.001 | 0.058
CC(C)Oc1ccc(NC(=O)N2CCC(c3ncnc4cc(N(C)C)ccc34)CC2)cc1 [Example 100, 4-(7-Dimethylamino-quinazolin-4-yl)-piperidine-1-carboxylic acid (4-isopropoxy-phenyl)-amide] | 0.08 | 0.036
CC(C)Oc1ccc(NC(=O)N2CCC(c3ncnc4ccc(OCCCN5CCCC5=O)cc34)CC2)cc1 [Example 101, 4-{6-[3-(2-Oxo-pyrrolidin-1-yl)-propoxy]-quinazolin-4-yl}-piperidine-1-carboxylic acid (4-isopropoxy-phenyl)-amide] | 0.0008 | 0.034
CC(C)Oc1ccc(NC(=O)N2CCC(c3ncnc4cc(NCCCN5CCN(C)CC5)ccc34)CC2)cc1 [Example 102, 4-{7-[3-(4-Methyl-piperazin-1-yl)-propylamino]-quinazolin-4-yl}-piperidine-1-carboxylic acid (4-isopropoxy-phenyl)-amide] | 0.005 | 0.018
CC(C)Oc1ccc(NC(=O)N2CCC(c3ncnc4cc(N5CCN(C)CC5)ccc34)CC2)cc1 [Example 103, 4-[7-(4-Methyl-piperazin-1-yl)-quinazolin-4-yl]-piperidine-1-carboxylic acid (4-isopropoxy-phenyl)-amide] | 0.001 | 0.025
CN1CCN(CCCOc2ccc3c(C4CCN(C(=O)Nc5ccc(N6CCCC6)nc5)CC4)ncnc3c2)CC1 [Example 104, 4-{7-[3-(4-Methyl-piperazin-1-yl)-propoxy]-quinazolin-4-yl}-piperidine-1-carboxylic acid (6-pyrrolidin-1-yl-pyridin-3-yl)-amide] | 0.011 | 0.012
CN1CCN(CCCOc2ccc3c(C4CCN(C(=O)Nc5cnc(N6CCCC6)nc5)CC4)ncnc3c2)CC1 [Example 105, 4-{7-[3-(4-Methyl-piperazin-1-yl)-propoxy]-quinazolin-4-yl}-piperidine-1-carboxylic acid (2-pyrrolidin-1-yl-pyrimidin-5-yl)-amide] | 0.064 | 0.091
CN1CCC(COc2ccc3c(C4CCN(C(=O)Nc5ccc(OC6CCC6)nc5)CC4)ncnc3c2)CC1 [Example 107, 4-[7-(1-Methyl-piperidin-4-ylmethoxy)-quinazolin-4-yl]-piperidine-1-carboxylic acid (6-cyclobutoxy-pyridin-3-yl)-amide] | 0.001 | 0.023
CN1CCC(COc2ccc3c(C4CCN(C(=O)Nc5ccc(N6CCOCC6)nc5)CC4)ncnc3c2)CC1 [Example 108, 4-[7-(1-Methyl-piperidin-4-ylmethoxy)-quinazolin-4-yl]-piperidine-1-carboxylic acid (6-morpholin-4-yl-pyridin-3-yl)-amide] | 0.004 | 0.173
CN1CCC(COc2ccc3c(C4CCN(C(=O)Nc5ccc(N6CCCC6)cc5)CC4)ncnc3c2)CC1 [Example 109, 4-[7-(1-Methyl-piperidin-4-ylmethoxy)-quinazolin-4-yl]-piperidine-1-carboxylic acid (4-pyrrolidin-1-yl-phenyl)-amide] | 0.035 | 0.018
O=C(NCCCOc1ccc2c(C3CCN(C(=O)Nc4ccc(N5CCCC5)nc4)CC3)ncnc2c1)N1CCOCC1 [Example 112, Morpholine-4-carboxylic acid (3-{4-[1-(6-pyrrolidin-1-yl-pyridin-3-ylcarbamoyl)-piperidin-4-yl]-quinazolin-7-yloxy}-propyl)-amide] | 0.005 | 0.098
CCN1CCN(CCCOc2ccc3c(C4CCN(C(=O)Nc5ccc(N6CCOCC6)cc5)CC4)ncnc3c2)CC1 [Example 115, 4-{7-[3-(4-Ethyl-piperazin-1-yl)-propoxy]-quinazolin-4-yl}-piperidine-1-carboxylic acid (4-morpholin-4-yl-phenyl)-amide] | 0.016 | 0.104
O=C(Nc1ccc(N2CCOCC2)cc1)N1CCC(c2ncnc3cc(OCCCN4CCN(CCO)CC4)ccc23)CC1 [Example 116, 4-(7-{3-[4-(2-Hydroxy-ethyl)-piperazin-1-yl]-propoxy}-quinazolin-4-yl)-piperidine-1-carboxylic acid (4-morpholin-4-yl-phenyl)-amide] | 0.014 | 0.139
CC(=O)N1CCN(CCCOc2ccc3c(C4CCN(C(=O)Nc5ccc(N6CCOCC6)cc5)CC4)ncnc3c2)CC1 [Example 117, 4-{7-[3-(4-Acetyl-piperazin-1-yl)-propoxy]-quinazolin-4-yl}-piperidine-1-carboxylic acid (4-morpholin-4-yl-phenyl)-amide] | 0.094 | 0.171
CS(=O)(=O)N1CCN(CCCOc2ccc3c(C4CCN(C(=O)Nc5ccc(N6CCOCC6)cc5)CC4)ncnc3c2)CC1 [Example 118, 4-{7-[3-(4-Methanesulfonyl-piperazin-1-yl)-propoxy]-quinazolin-4-yl}-piperidine-1-carboxylic acid (4-morpholin-4-yl-phenyl)-amide] | 0.008 | 0.09
O=C(Nc1ccc(N2CCOCC2)cc1)N1CCC(c2ncnc3cc(OCCCN4CCC[C@H]4CO)ccc23)CC1 [Example 119, (S)-4-{7-[3-(2-Hydroxymethyl-pyrrolidin-1-yl)-propoxy]-quinazolin-4-yl}-piperidine-1-carboxylic acid (4-morpholin-4-yl-phenyl)-amide] | 0.047 | 0.053
CN(C)C(=O)N1CCN(CCCOc2ccc3c(C4CCN(C(=O)Nc5ccc(N6CCOCC6)cc5)CC4)ncnc3c2)CC1 [Example 120, 4-(3-{4-[1-(4-Morpholin-4-yl-phenylcarbamoyl)-piperidin-4-yl]-quinazolin-7-yloxy}-propyl)-piperazine-1-carboxylic acid dimethylamide] | 0.036 | 0.22
CC(C)Oc1ccc(NC(=O)N2CCC(c3ncnc4cc(OCCCOS(C)(=O)=O)ccc34)CC2)cc1 [Example 121, Methanesulfonic acid 3-{4-[1-(4-isopropoxy-phenylcarbamoyl)-piperidin-4-yl]-quinazolin-7-yloxy}-propyl ester] | 0.003 | 0.027
CS(=O)(=O)OCCCOc1ccc2c(C3CCN(C(=O)Nc4ccc(N5CCOCC5)cc4)CC3)ncnc2c1 [Example 122, Methanesulfonic acid 3-{4-[1-(4-morpholin-4-yl-phenylcarbamoyl)-piperidin-4-yl]-quinazolin-7-yloxy}-propyl ester] | 0.023 | 0.136
O=C(Nc1ccc(N2CCOCC2)cc1)N1CCC(c2ncnc3cc(OCCCN4CCCC4)ccc23)CC1 [Example 124, 4-[7-(3-Pyrrolidin-1-yl-propoxy)-quinazolin-4-yl]-piperidine-1-carboxylic acid (4-morpholin-4-yl-phenyl)-amide] | 0.021 | 0.047
CN1CCCN(CCCOc2ccc3c(C4CCN(C(=O)Nc5ccc(N6CCOCC6)cc5)CC4)ncnc3c2)CC1 [Example 125, 4-{7-[3-(4-Methyl-[1,4]diazepan-1-yl)-propoxy]-quinazolin-4-yl}-piperidine-1-carboxylic acid (4-morpholin-4-yl-phenyl)-amide] | 0.006 | 0.045
